{"source": "patent US20230067942A1", "about": "“IMPROVEMENT IN PULMONARY ARTERIAL […] INHALED NITRIC OXIDE (iNO) TREATMENT” (BELLEROPHON THERAPEUTICS, priority 2020, published 2023)", "system": "patients with PH associated with PF (PH-PF)", "assay": "Acute escalating doses of pulsed iNO; hemodynamics by right heart catheterization (RHC) in PH-PF patients", "type": "in vivo, human", "conditions": "for Pulmonary arterial compliance (PAC), change from baseline: nine PH-PF patients on oxygen, median change", "procedure": "FIG. 1 depicts the study design for acute iNO dose escalation. Nine PH-PF subjects were administered escalating doses of pulsed iNO (iNO30 to iNO75 mcg/kg IBW/hrs) with continuous oxygen.\nFIG. 2, comprising FIGS. 2A-2C, are graphs depicting pulmonary arterial compliance, or PAC (FIG. 2A), pulmonary vascular resistance, or PVR (FIG. 2B), and mean pulmonary arterial pressure, or mPAP (FIG. 2C) for inhaled nitric oxide at 30 mcg/kg IBW/hr (iNO30), 45 mcg/kg IBW/hr (iNO45), and 75 mcg/kg IBW/hr (iNO75). The data is based on nine pulmonary hypertension—interstitial lung disease (ILD) patients. Bar graphs represent median change from baseline at each assessment for all available subjects. […] Statistical analysis was based on the Wilcoxon Rank Test.\nThis study was performed to determine whether increasing doses of pulsed iNO can improve PAC in patients with PH-PF on long-term oxygen therapy with intermediate or high probability of pulmonary hypertension (PH) as determined by echocardiography. Nine patients were acutely challenged with escalating doses of iNO (iNO30, iNO45, and iNO75) over a 90 minute period. Each dose was administered for 10 minutes, with 10 minute “washout” periods between doses. Baseline measurements were taken from timepoint 0-30 minutes. iNO30 was dosed at 30 mcg/kg IBW/hrs from timepoint 30-40 minutes, iNO45 at 45 mcg/kg IBW/hrs from timepoint 50-60 minutes, and iNO75 was dosed at 75 mcg/kg IBW/hrs from timepoint 70-80 minutes (see FIG. 1). The demographics of the patient population is described in Table 1, and Baseline Hemodynamics in Table 2, below.\nPAC was derived by stroke volume divided by (SPAP-DPAP) collected during right heart catheterization (RHC). Patients were on sufficient supplemental oxygen at baseline to maintain an SpO2 of at least 92% at rest. Upon completion of the RHC, subjects were offered the opportunity to continue on to chronic iNO therapy in an extension study. 6 minute walk distance (6MWD) was assessed prior to RHC treatment in the extension study.", "key": {"[1]": {"conditions": "all subjects, doses not separated"}, "[2]": {"conditions": "iNO30 (30 mcg/kg IBW/hr, pulsed, 10 min), nine PH-PF patients, Wilcoxon Rank Test"}, "[3]": {"conditions": "iNO45 (45 mcg/kg IBW/hr, pulsed, 10 min), nine PH-PF patients, Wilcoxon Rank Test"}, "[4]": {"conditions": "iNO75 (75 mcg/kg IBW/hr, pulsed, 10 min), nine PH-PF patients, Wilcoxon Rank Test"}}, "note": "“Also recorded” adds a separate entry of the source."}
{"smiles": "[N]=O", "note": "[iNO, nitric oxide]", "values": [{"measurement": "PAC on pulsed iNO versus average baseline", "setting": "[1]", "result": "increase"}, {"measurement": "PVR on pulsed iNO versus average baseline", "setting": "[1]", "result": "reduction; also recorded: statistically and clinically significant improvements"}, {"measurement": "mPAP on pulsed iNO versus average baseline", "setting": "[1]", "result": "statistically and clinically significant improvements; also recorded: reduction"}, {"measurement": "PAC on pulsed iNO versus average baseline", "setting": "all subjects, doses not separated, listed as Inhaled NO", "result": "improves PAC"}, {"measurement": "Pulmonary arterial compliance (PAC), change from baseline", "setting": "iNO30 (30 mcg/kg IBW/hr, pulsed, 10 min), Wilcoxon Rank Test", "result": "improved with significance"}, {"measurement": "Mean pulmonary arterial pressure (mPAP), change from baseline", "setting": "[2]", "result": "statistically significant improvement; also recorded: improved with significance"}, {"measurement": "Pulmonary vascular resistance (PVR), change from baseline", "setting": "[2]", "result": "statistically significant improvement; also recorded: improved with significance"}, {"measurement": "Pulmonary arterial compliance (PAC), change from baseline", "setting": "iNO45 (45 mcg/kg IBW/hr, pulsed, 10 min), Wilcoxon Rank Test", "result": "improved with significance"}, {"measurement": "Mean pulmonary arterial pressure (mPAP), change from baseline", "setting": "[3]", "result": "statistically significant improvement; also recorded: improved with significance"}, {"measurement": "Pulmonary vascular resistance (PVR), change from baseline", "setting": "[3]", "result": "statistically significant improvement; also recorded: improved with significance"}, {"measurement": "Pulmonary vascular resistance (PVR), further change between iNO30 and iNO45 doses", "setting": "iNO45 versus iNO30, nine PH-PF patients, Wilcoxon Rank Test", "result": "additional statistically significant improvement; also recorded: further improved with significance"}, {"measurement": "Pulmonary arterial compliance (PAC), change from baseline", "setting": "iNO75 (75 mcg/kg IBW/hr, pulsed, 10 min), Wilcoxon Rank Test", "result": "improvement in PAC"}, {"measurement": "Mean pulmonary arterial pressure (mPAP), change from baseline", "setting": "[4]", "result": "statistically significant improvement; also recorded: improved with significance"}, {"measurement": "Pulmonary vascular resistance (PVR), change from baseline", "setting": "[4]", "result": "statistically significant improvement; also recorded: improved with significance"}]}
